Measured values taken from patent US8785470B2, “Heterocyclic compounds and uses thereof” (Infinity Pharmaceuticals, Inc., priority 2011, dated 2014).

Test system: Balb/c splenic B cells
Assay: B cell activation and proliferation assay
Format: cell-based
Details: Mus musculus, column bins 1 μM to 100 nM (given as 100-1000) and Less than 100 nM, read-out: B cell proliferation EC50
Description: The ability of one or more subject compounds to inhibit B cell activation and proliferation is determined according to standard procedures known in the art. For example, an in vitro cellular proliferation assay is established that measures the metabolic activity of live cells. The assay is performed in a 96 well microtiter plate using Alamar Blue reduction. Balb/c splenic B cells are purified over a Ficoll-Paque™ PLUS gradient followed by magnetic cell separation using a MACS B cell Isolation Kit (Miletenyi). Cells are plated in 90 μl at 50.000 cells/well in B Cell Media (RPMI+10% FBS+Penn/Strep+50 μME5 mM HEPES). A compound provided herein is diluted in B Cell Media and added in a 10 μl volume. Plates are incubated for 30 min at 37° C. and 5% CO2 (0.2% DMSO final concentration). A 50 μl B cell stimulation cocktail is then added containing either 10 μg/ml LPS or 5 μg/ml F(ab′)2 Donkey anti-mouse IgM plus 2 ng/ml recombinant mouse IL4 in B Cell Media. Plates are incubated for 72 hours at 37° C. and 5% CO2. A volume of 15 μL of Alamar Blue reagent is added to each well and plates are incubated for 5 hours at 37° C. and 5% CO2. Alamar Blue fluoresce is read at 560Ex/590Em, and IC50 or EC50 values are calculated using GraphPad Prism 5.

| SMILES | EC50 |
| --- | --- |
| COc1cncc(-c2cccc3cc([C@H](C)Nc4nc(N)ncc4C#N)n(-c4ccccc4)c(=O)c23)c1 [Compound 9, (S)-2-amino-4-((1-(8-(5-methoxypyridin-3-yl)-1-oxo-2-phenyl-1,2-dihydroisoquinolin-3-yl)ethyl)amino)pyrimidine-5-carbonitrile] | < 100 nM |
| COc1ncc(-c2cccc3cc([C@H](C)Nc4nc(N)ncc4C(F)(F)F)n(-c4ccccc4)c(=O)c23)cn1 [Compound 12] | < 100 nM |
| COc1ncc(-c2cccc3cc([C@H](C)Nc4nc(N)ncc4C#N)n(-c4cccc(F)c4)c(=O)c23)cn1 [Compound 22] | < 100 nM |
| C[C@H](Nc1nc(N)ncc1C#N)c1cc2cccc(-c3cnc4[nH]ccc4c3)c2c(=O)n1-c1cccc(F)c1 [Compound 25] | < 100 nM |
| COc1ncc(-c2cccc3cc([C@H](C)Nc4nc(N)ncc4C(F)(F)F)n(-c4cccc(F)c4)c(=O)c23)cn1 [Compound 31] | < 100 nM |
| C[C@H](Nc1nc(N)ncc1C#N)c1cc2cccc(-c3cnc4[nH]ccc4c3)c2c(=O)n1-c1ccccc1 [Compound 47] | < 100 nM |
| C[C@H](Nc1nc(N)ncc1C#N)c1cc2cccc(-c3cnc4ccccc4c3)c2c(=O)n1-c1ccccc1 [Compound 50] | < 100 nM |
| Cc1ncc(-c2cccc3nc([C@H](C)Nc4nc(N)ncc4C#N)n(-c4ccccc4)c(=O)c23)cn1 [Compound 63, (S)-2-amino-4-((1-(5-(2-methylpyrimidin-5-yl)-4-oxo-3-phenyl-3,4-dihydroquinazolin-2-yl)ethyl)amino)pyrimidine-5-carbonitrile] | < 100 nM |
| Nc1nccc(Cl)n1 [Compound 79, 2-amino-4-chloro-pyrimidine] | < 100 nM |
| Cc1nc(N)nc(N[C@@H](C)c2cc3cccc(Cl)c3c(=O)n2-c2ccccc2)c1C#N [Compound 89, (S)-2-amino-4-(1-(8-chloro-1-oxo-2-phenyl-1,2-dihydroisoquinolin-3-yl)ethylamino)-6-methylpyrimidine-5-carbonitrile] | < 100 nM |
| Cc1cc(N[C@@H](C)c2cc3cccc(Cl)c3c(=O)n2-c2ccccc2)nc(N)n1 [Compound 92, (S)-3-(1-((2-amino-6-methylpyrimidin-4-yl)amino)ethyl)-8-chloro-2-phenylisoquinolin-1(2H)-one] | 100 to 1000 nM |
| C[C@H](Nc1nc(N)ncc1C#N)c1cc2cccc(-c3cncc(N(C)C)c3)c2c(=O)n1-c1ccccc1 [Compound 96] | < 100 nM |
| COc1cncc(-c2cccc3cc([C@H](C)Nc4nc(N)ncc4C#N)n(C4CC4)c(=O)c23)c1 [Compound 106] | < 100 nM |
| COc1cc(-c2cccc3cc([C@H](C)Nc4nc(N)ncc4C#N)n(C4CC4)c(=O)c23)ccn1 [Compound 107] | < 100 nM |
| COc1cc(-c2cccc3cc([C@H](C)Nc4nc(N)ncc4C(=O)N(C)C)n(-c4ccccc4)c(=O)c23)ccn1 [Compound 112] | < 100 nM |
| C[C@H](Nc1ncnc(N)c1[N+](=O)[O-])c1cc2cccc(Cl)c2c(=O)n1-c1ccccc1 [Compound 129] | < 100 nM |
| C[C@H](Nc1nc(N)ncc1C#N)c1cc2cccc(-c3ccnc(O)c3)c2c(=O)n1-c1ccccc1 [Compound 130] | < 100 nM |
| C[C@H](Nc1nc(N)ncc1C#N)c1cc2cccc(Oc3ccccc3)c2c(=O)n1-c1ccccc1 [Compound 151] | < 100 nM |
| COc1cc(-c2cccc3cc([C@H](C)Nc4nc(N)ncc4-c4ccc(O)c(F)c4)n(-c4ccccc4)c(=O)c23)ccn1 [Compound 159] | < 100 nM |
| COc1cc(-c2cccc3cc([C@H](C)Nc4nc(N)ncc4-c4cc(O)cc(F)c4)n(-c4ccccc4)c(=O)c23)ccn1 [Compound 161] | 100 to 1000 nM |
| COc1cc(-c2cccc3cc([C@H](C)Nc4nc(N)ncc4-c4ccc(F)c(O)c4)n(-c4ccccc4)c(=O)c23)ccn1 [Compound 163] | 100 to 1000 nM |
| C[C@H](Nc1nc(N)ncc1C#N)c1cc2cccc(C#CCCC(=O)N3CCOCC3)c2c(=O)n1-c1ccccc1 [Compound 193] | < 100 nM |

Same assay, conditions: Mus musculus, read-out: B cell proliferation EC50

| SMILES | EC50 |
| --- | --- |
| C[C@H](Nc1nc(N)ncc1C(=O)N1CCC1)c1cc2cccc(-c3cnn(C)c3)c2c(=O)n1-c1ccccc1 [Compound 204] | 1000 to 10000 nM |
